Columns and labels:
TNFα trimer = TNFα trimer (Homo sapiens, UniProt P01375); assay: Mass spectrometric analysis of compound binding to and stabilisation of TNFα trimer
Procedure: Mass spectrometry was typically performed using a Waters LCT-premier Time-of-Flight mass spectrometer or a Waters SynaptG2 Q-TOF mass spectrometer. Samples were introduced using an Advion Triversa Nanomate nanoflow infusion device which replaces the conventional spectrometer source, sample injection was via an “A” series chip with […] nozzle size at a nominal flow rate of 100 nl/min. Further modifications to the Waters LCT-premier Time-of-Flight mass spectrometer include a customised source cooling device allowing precise control of the source temperature and a commercial pressure regulation device giving precise control over the vacuum conditions in the source region. Together these modifications help retain the TNFα trimer in a native, folded conformation and facilitate the detection of complexes formed with test compounds of weak affinities.
Ions were generated using standard positive ion electrospray conditions resulting in multiple charging of TNFα.
Mass spectrometry is very sensitive to the buffer salts present in the protein sample. Typical buffer salts such as potassium or sodium phosphates have a severely detrimental affect on ionisation. Accordingly protein samples were pre-treated to remove these salts using a Zeba desalt spin column, the protein being exchanged into a mass spectrometry compatible buffer system, typically 50 mM Ammonium Acetate at pH 6.8.
Typically the test compounds were presented as 10 mM DMSO stock solutions such that when they are incubated with TNFα in solution the final DMSO concentration is 5%. […] This is evidenced by the changes in the number of charges acquired by the protein under the various conditions described.
Test compounds were prepared as 10 mM solutions in dimethylsulphoxide (DMSO). Therefore, it was necessary to establish the effect of DMSO on the native TNFα trimer in the absence of a test compound. DMSO was added to an aqueous solution of TNFα trimer to give a final concentration of 5% v/v and the mass spectrum acquired.
The compound of formula (1) was added to a solution containing TNFα and 5% v/v DMSO and the mass spectrum acquired.
Further evidence for the stabilization of the trimeric form of TNFα by the test compounds was obtained from analyzing the samples under harsher ionization conditions that tend to favour breakdown of the native trimeric form into monomers.
Incubation of a library of test compounds, including the compound of formula (1) with TNFα was monitored by mass spectrometry under soft ionization conditions. […] This confirms that the test compounds, including the compound of formula (1), have a different mode of action to known compounds, which stabilize the dimeric form of TNFα.
A species of lower molecular weight (˜473 Da appears to bind at less than 5% occupancy). C87 has a molecular weight of 503 Da.

TNFα and TNF-R = TNFα and TNF-R (Homo sapiens, UniProt P01375); assay: LC-MS analysis of size exclusion fractions of TNFα, TNF-R and compound; type: binding; settings: compound added before or after TNFα/TNF-R complex formation
Chain of TNFα and TNF-R (P01375 77-233 limits assumed): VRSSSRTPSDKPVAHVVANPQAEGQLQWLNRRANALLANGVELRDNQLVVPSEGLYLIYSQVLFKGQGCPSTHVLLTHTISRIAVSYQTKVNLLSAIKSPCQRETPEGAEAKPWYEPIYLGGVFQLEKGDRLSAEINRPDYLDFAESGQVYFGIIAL
Chain of TNFα and TNF-R (P19438 30-211 partner limits assumed): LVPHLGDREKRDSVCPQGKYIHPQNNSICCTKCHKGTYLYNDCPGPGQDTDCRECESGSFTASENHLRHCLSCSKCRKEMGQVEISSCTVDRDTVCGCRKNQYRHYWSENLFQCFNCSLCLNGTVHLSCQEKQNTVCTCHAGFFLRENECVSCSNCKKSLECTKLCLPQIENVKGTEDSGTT
Procedure: Fractions from size exclusion chromatographic separation of mixtures of TNFα, TNF-R and the compound of formula (1) were analysed by liquid chromatography-mass spectrometry (LC-MS). Two samples were prepared for size exclusion chromatography.

[1] = system: TNFα stimulated neutrophil recruitment into the peritoneal cavity; assay: Neutrophil recruitment in mice, compound given orally before i.p. hTNFα; type: in vivo, Balb/c mice
Procedure: In a further experiment, mice were treated with hTNFα ([…]) and the compound of formula (1) was administered orally (p.o.).
The compound of formula (1) was made into a suspension in 1% methylcellulose vehicle using a covaris machine.
An anti-human TNFα monoclonal antibody (anti-hTNFα, UCB) was also utilised as a positive control in this study.
Ten male Balb/c mice were used per group except in the group that received anti-hTNFα for which 4 mice were used.
All mice were killed by cervical dislocation two hours post-injection of hTNFα (t=2 h) and the peritoneal cavity was lavaged and neutrophil numbers measured as described above.

[2] = system: activation of NF-κB by TNFα; assay: HEK-293 NF-κB SEAP reporter gene assay, TNFα stimulus; type: cell-based; settings: Homo sapiens, HEK293; HEK-293 reporter cells, TNFα 0.5 ng/ml
Procedure: (§1) Stimulation of HEK-293 cells by TNF-alpha leads to activation of the NF-kB pathway. The reporter cell line used to determine TNF alpha activity was purchased from Invivogen. HEK-Blue™ CD40L, is a stable transfectant expressing SEAP (secreted alkaline phosphatase) under the control of the IFN-beta minimal promoter fused to 5 NF-kB binding sites. Secretion of SEAP by these cells is stimulated in a concentration dependent manner by TNF-alpha (0.5 ng/ml), IL-1-beta (0.5 ng/ml) and an activating anti-human TNFR1 antibody (300 ng/ml).
Compounds were diluted from 10 mM DMSO stocks (final assay concentration 0.3%) to generate a 10 point 3 fold serial dilution curve (30,000 nM to 2 nM final concentration). They were mixed with stimulating ligand for 1 hour in a 384 well microtitre plate. […] SEAP activity was determined in the supernatant using the colorimetric substrate Quanti-Blue™ (Invivogen).
Percentage inhibitions for compound dilutions were calculated between a DMSO control and maximum inhibition (by excess control compound) and an IC50 calculated using xlfit (4 parameter logistic model) in Activity Base. […]
C87 was preincubated with TNFα for 1 hour prior to the addition to HEK-293 cells stably transfected with SEAP under the control of NFκB. […] The assay was incubated overnight before inhibition was measured compared to 100% blocking by a control compound. […]

[3] = system: activation of NF-κB by IL-1β; assay: HEK-293 NF-κB SEAP reporter gene assay, IL-1β counterscreen; type: cell-based; settings: Homo sapiens, HEK293; HEK-293 reporter cells, IL-1β 0.5 ng/ml
Procedure: as §1
(§2) Compounds were diluted from 10 mM DMSO stocks (final assay concentration 0.3%) to generate a 10 point 3 fold serial dilution curve (30,000 nM to 2 nM final concentration). They were mixed with stimulating ligand for 1 hour in a 384 well microtitre plate. Freshly thawed and washed cells were added to the compound/stimulus mixture and further incubated for 18 hours. SEAP activity was determined in the supernatant using the colorimetric substrate Quanti-Blue™ (Invivogen).
(§3) Percentage inhibitions for compound dilutions were calculated between a DMSO control and maximum inhibition (by excess control compound) and an IC50 calculated using xlfit (4 parameter logistic model) in Activity Base.
(§4) The specific activity of each compound against the TNF-alpha response was compared to that seen with the counterscreens (IL-1beta and anti-human TNFR1 antibody).

[4] = system: activation of NF-κB by activating anti-human TNFR1 antibody; assay: HEK-293 NF-κB SEAP reporter gene assay, activating TNF-R1 antibody counterscreen; type: cell-based; settings: HEK293, HEK-293 reporter cells, antibody 300 ng/ml
Procedure: as §1, §2, §3, §4

Chain of TNFα trimer (P01375 77-233 limits assumed): as the sequence (P01375 77-233 limits assumed) above

Structure (SMILES) | stabilisation of trimeric TNFα (charge state envelope) (TNFα trimer; 5% v/v DMSO, soft ionisation) | quantity of TNFα monomer detected (TNFα trimer; harsher ionization conditions, data not shown) | binding to the monomeric form of TNFα (TNFα trimer; soft ionization conditions) | stabilization of the dimeric form of TNFα (TNFα trimer; soft ionization conditions) | stoichiometry of binding (TNFα trimer; soft ionization conditions) | binding to TNFα in the presence of TNF-R (TNFα and TNF-R) | reduction of TNFα stimulated neutrophil recruitment into the peritoneal cavity ([1]; 30 mg/kg p.o. 30 minutes before hTNFα 0.03 μg/kg i.p.) [%] | reduction of TNFα stimulated neutrophil recruitment into the peritoneal cavity ([1]; 100 mg/kg p.o. 30 minutes before hTNFα 0.03 μg/kg i.p.) [%] | IC50 [2] [µM] | IC50 [3] [µM] | IC50 [4] [µM]
Cc1ccc(C)c(Cn2c(C(O)c3ccncc3)nc3ccccc32)c1 (centres unmarked) [Compound (1), [1-(2,5-Dimethylbenzyl)-1H-benzimidazol-2-yl](pyridin-4-yl)methanol] | stabilization of the trimeric TNFα complex over and above that observed in the absence of DMSO | significantly reduced | not observed to bind | no evidence for stabilization | one molecule of the compound of formula (1) per TNFα trimer | binds to TNFα even in the presence of TNF-R | 49 | 79 |  |  | 
Cc1ccc(C)c(Cn2c(C(O)c3ccncc3)nc3ccc(-c4cnn(C)c4)cc32)c1 (centres unmarked) [Compound (2), [1-(2,5-Dimethylbenzyl)-6-(1-methyl-1H-pyrazol-4-yl)-1H-benzimidazol-2-yl](pyridin-4-yl)methanol] |  |  |  |  |  |  |  |  | 0.113 | > 30 | > 30
